Measurements published in ChEMBL document CHEMBL1128350, “Design and evaluation of nonpeptide fibrinogen gamma-chain based GPIIb/IIIa antagonists” (J Med Chem, 1995).
Peptide text beside a SMILES is read from it.

Experiments:
[1] = target: T1, Integrin alpha-IIb/beta-3 (Homo sapiens, UniProt P05106+P08514); test: Inhibition of biotinylated fibrinogen binding to isolated alpha IIb beta-3 integrin; format: protein-complex assay
Target sequence in this assay (P05106 27-788 limits assumed): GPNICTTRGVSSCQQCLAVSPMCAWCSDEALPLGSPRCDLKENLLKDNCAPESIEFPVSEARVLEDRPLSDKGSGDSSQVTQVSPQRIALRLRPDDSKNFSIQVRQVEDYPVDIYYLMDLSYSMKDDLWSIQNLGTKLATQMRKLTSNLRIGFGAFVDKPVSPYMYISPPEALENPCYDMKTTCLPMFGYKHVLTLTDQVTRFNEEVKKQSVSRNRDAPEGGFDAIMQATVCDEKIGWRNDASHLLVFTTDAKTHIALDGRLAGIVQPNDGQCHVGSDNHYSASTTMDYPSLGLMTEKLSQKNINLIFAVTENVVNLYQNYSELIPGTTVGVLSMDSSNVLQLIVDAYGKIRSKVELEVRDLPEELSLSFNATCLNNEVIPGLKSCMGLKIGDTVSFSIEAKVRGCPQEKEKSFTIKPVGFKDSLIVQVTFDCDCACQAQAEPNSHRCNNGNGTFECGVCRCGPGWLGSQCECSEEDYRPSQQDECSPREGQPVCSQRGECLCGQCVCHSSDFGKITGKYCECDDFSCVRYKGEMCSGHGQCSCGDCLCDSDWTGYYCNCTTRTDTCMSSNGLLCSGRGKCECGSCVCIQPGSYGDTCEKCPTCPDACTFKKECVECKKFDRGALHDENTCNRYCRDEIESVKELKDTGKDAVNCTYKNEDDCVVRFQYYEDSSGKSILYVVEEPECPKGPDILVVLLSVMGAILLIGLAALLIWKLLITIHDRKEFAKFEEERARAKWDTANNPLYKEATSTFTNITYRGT
Target sequence in this assay (P08514 32-887 limits assumed): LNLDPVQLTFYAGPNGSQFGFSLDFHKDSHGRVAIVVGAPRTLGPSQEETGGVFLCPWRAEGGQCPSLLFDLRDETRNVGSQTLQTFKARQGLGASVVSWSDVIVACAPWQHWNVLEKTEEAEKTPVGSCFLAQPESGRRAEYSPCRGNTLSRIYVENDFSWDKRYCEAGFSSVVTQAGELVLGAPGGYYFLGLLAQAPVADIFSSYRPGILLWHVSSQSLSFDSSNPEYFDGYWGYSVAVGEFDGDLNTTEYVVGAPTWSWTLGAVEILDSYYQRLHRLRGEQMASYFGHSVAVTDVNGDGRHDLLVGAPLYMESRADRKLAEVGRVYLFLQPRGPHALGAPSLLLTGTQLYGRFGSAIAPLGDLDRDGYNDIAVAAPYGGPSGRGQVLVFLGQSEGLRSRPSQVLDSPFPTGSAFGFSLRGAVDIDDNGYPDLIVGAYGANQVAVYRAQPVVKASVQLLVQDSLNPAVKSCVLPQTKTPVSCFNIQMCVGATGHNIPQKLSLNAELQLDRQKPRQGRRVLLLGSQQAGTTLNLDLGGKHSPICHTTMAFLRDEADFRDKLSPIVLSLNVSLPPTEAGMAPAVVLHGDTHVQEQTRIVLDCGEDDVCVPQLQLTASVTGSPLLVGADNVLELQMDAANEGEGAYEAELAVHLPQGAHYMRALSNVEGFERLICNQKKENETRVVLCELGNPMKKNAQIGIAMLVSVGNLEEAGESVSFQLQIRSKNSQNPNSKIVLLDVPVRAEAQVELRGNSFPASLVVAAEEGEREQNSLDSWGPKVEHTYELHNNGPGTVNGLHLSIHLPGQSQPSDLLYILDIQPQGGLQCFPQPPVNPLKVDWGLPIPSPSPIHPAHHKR
Target sequence in this assay (P08514 891-1039 limits assumed): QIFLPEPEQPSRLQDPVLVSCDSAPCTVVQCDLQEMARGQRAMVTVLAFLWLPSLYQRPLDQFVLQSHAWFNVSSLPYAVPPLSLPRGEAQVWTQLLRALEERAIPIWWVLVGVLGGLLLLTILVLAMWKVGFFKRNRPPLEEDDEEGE

[2] = organism: Homo sapiens; test: Inhibition of collagen-induced platelet aggregation […].; format: functional
[3] = organism: Homo sapiens; test: Inhibition (at 10 uM) of thrombin-induced platelet aggregation; format: functional
[4] = organism: Homo sapiens; test: Inhibition (at 50 uM) of thrombin-induced platelet aggregation; format: functional
[5] = organism: Homo sapiens; test: Compound was tested for inhibition of thrombin-induced platelet aggregation at the 1.0 uM Conc.; format: functional
[6] = organism: Homo sapiens; test: Percent inhibition of thrombin-induced platelet aggregation at 50 uM.; format: functional
[7] = target: T1, Integrin alpha-IIb/beta-3; test: (§1) Inhibition of fibrinogen binding to isolated integrin alphaIIb-beta3 at 50 uM.; format: protein-complex assay
[8] = target: T1, Integrin alpha-IIb/beta-3; test: as §1; format: protein-complex assay; remark: listed apart in the source
Target sequence in this assay (P05106 27-788 limits assumed): as the sequence (P05106 27-788 limits assumed) above
Target sequence in this assay (P08514 32-887 limits assumed): as the sequence (P08514 32-887 limits assumed) above
Target sequence in this assay (P08514 891-1039 limits assumed): as the sequence (P08514 891-1039 limits assumed) above

[9] = organism: Homo sapiens; test: Percent inhibition of thrombin-induced platelet aggregation at 20 uM.; format: functional
[10] = Percent inhibition of thrombin-induced platelet aggregation at the Conc. of 0.1 uM.
[11] = as above; remark: listed apart in the source

| Compound | IC50 [1] [nM] | inhibition at 10 µM [3] [%] | inhibition at 50 µM [4] [%] | also measured |
| --- | --- | --- | --- | --- |
| COC(=O)[C@H](CC(=O)O)NC(=O)C1CCCN(C(=O)[C@H](CCCCN)NC(=O)OC(C)(C)C)C1 (some centres undefined) | 29 | 32 | 87 | IC50 [2]: 2630 nM; inhibition at 1 µM [5]: 2% |
| CC(=O)N[C@H](CCCCN)C(=O)N1CCCC(C(=O)NCC(=O)O)C1 (some centres undefined) | – | – | 4 | inhibition at 50 µM [1]: 24% |
| CC(C)(C)OC(=O)N[C@@H](CCCCN)C(=O)N1CCCC(C(=O)NCCCC(=O)O)C1 (some centres undefined) | – | 7 | 43 | – |
| COC(=O)CNC12CC3CC(C1)CC(NC(=O)C(CCCCN)NC(=O)OCC1c4ccccc4-c4ccccc41)(C3)C2 (centres undefined) | – | – | – | inhibition at 50 µM [6]: 25%; inhibition [7]: 1% |
| CC(C)(C)OC(=O)N[C@@H](CCCCNC(=O)OCc1ccccc1)C(=O)N1CCC[C@@H](C(=O)NCCC(=O)O)C1 | 20000 | – | – | – |
| CC(C)(C)OC(=O)N[C@@H](CCCCN)C(=O)N1CCCC(C(=O)NCC(=O)O)C1 (some centres undefined) | 50000 | 7 | 24 | – |
| N=C(N)NCCC[C@H](N)C(=O)NCC(=O)N[C@@H](CC(=O)O)C(=O)N[C@@H](CS)C(=O)O (H-RGDC-OH) | 1000 | – | – | – |
| NCCCCCC(=O)N1CCCC(C(=O)NCCC(=O)O)C1 (centres undefined) | – | 87 | 88 | inhibition at 1 µM [5]: 29% |
| CC(C)(C)OC(=O)NC(CCCN=C(N)N)C(=O)NC12CC3CC(CC(NCC(=O)O)(C3)C1)C2 (centres undefined) | – | – | – | inhibition at 50 µM [6]: 9%; inhibition [7]: 28% |
| CC(C)(C)OC(=O)N[C@H](CCCCN)C(=O)N1CCCC(C(=O)NCCCC(=O)O)C1 (some centres undefined) | – | 0 | 0 | inhibition at 50 µM [1]: 59% |
| CC(C)NCCCCC(NC(=O)OC(C)(C)C)C(=O)NC12CC3CC(CC(NCC(=O)O)(C3)C1)C2 (centres undefined) | – | – | – | inhibition at 50 µM [6]: 3%; IC50 [8]: 29900 nM |
| CC(C)(C)OC(=O)NC(CCCCN)C(=O)NC12CC3CC(CC(NCC(=O)O)(C3)C1)C2 (centres undefined) | – | – | – | inhibition at 20 µM [9]: 40% |
| CC(C)(C)OC(=O)N[C@@H](CCCCN)C(=O)N1CCC[C@H](C(=O)NCCC(=O)O)C1 | 28 | 87 | 91 | inhibition at 1 µM [5]: 11% |
| CC(C)(C)OC(=O)N[C@H](CCCN=C(N)N)C(=O)N1CCCC(C(=O)NCCC(=O)O)C1 (some centres undefined) | 2700 | 0 | 17 | – |
| NCCCCCC(=O)N1CCCC(CNCCC(=O)O)C1 (centres undefined) | – | 24 | 63 | – |
| O=C(O)CNC12CC3CC(C1)CC(NC(=O)CCC1CCNCC1)(C3)C2 | – | – | – | inhibition at 50 µM [6]: 5%; inhibition [7]: 49% |
| NCCCC[C@H](N)C(=O)N1CCCC(C(=O)NCCC(=O)O)C1 (some centres undefined) | 760 | 48 | 87 | inhibition at 1 µM [5]: 0% |
| CC(C)NCCCC[C@@H](NC(=O)OC(C)(C)C)C(=O)N1CCCC(C(=O)NCCC(=O)O)C1 (some centres undefined) | – | 6 | 4 | inhibition at 5 µM [1]: 20% |
| NCCCCC(NC(=O)OCc1ccccc1)C(=O)NC12CC3CC(C1)CC(N(CC(=O)O)C(=O)COc1ccccc1)(C3)C2 (centres undefined) | – | – | – | inhibition at 50 µM [6]: 2%; inhibition [7]: 33% |
| CC(=O)N[C@H](CCCCN)C(=O)N1CCCC(C(=O)NCCC(=O)O)C1 (some centres undefined) | 74 | 30 | 88 | inhibition at 1 µM [5]: 4% |
| O=C(O)CCNC(=O)C1CCCN(C(=O)CCC2CCNCC2)C1 (centres undefined) | 9 | 89 | 91 | inhibition at 0.1 µM [10]: 4%; IC50 [2]: 140 nM; inhibition at 1 µM [5]: 89% |
| NCCCCC(NC(=O)OCc1ccccc1)C(=O)NC12CC3CC(CC(NCC(=O)O)(C3)C1)C2 (centres undefined) | – | – | – | inhibition at 50 µM [6]: 24%; inhibition [7]: 26% |
| NCCCC[C@@H](N)C(=O)N1CCCC(C(=O)NCCC(=O)O)C1 (some centres undefined) | 2600 | 1 | 8 | – |
| COC(=O)CC(NC(=O)CNC12CC3CC(C1)CC(NC(=O)C(CCCCN)NC(=O)OCC1c4ccccc4-c4ccccc41)(C3)C2)C(=O)NC(C(=O)OC)C(C)C (centres undefined) | – | – | – | inhibition at 50 µM [6]: 15%; inhibition [7]: 0% |
| CC(=O)N[C@@H](CCCCN)C(=O)N1CCCC(C(=O)NCCC(=O)O)C1 (some centres undefined) | 340 | 67 | 87 | – |
| CC(C)(C)OC(=O)N[C@@H](CCCCN)C(=O)N1CCC[C@@H](C(=O)NCCC(=O)O)C1 | 8 | 87 | 91 | IC50 [2]: 220 nM; inhibition at 1 µM [5]: 45%; inhibition at 0.1 µM [11]: 2% |
| H-HHLGGAKQAGDV-OH | 4100 | – | – | – |
| C[C@H](NC(=O)OCC1c2ccccc2-c2ccccc21)C(=O)N[C@@H](CCCCN)C(=O)NC12CC3CC(CC(NCC(=O)O)(C3)C1)C2 | – | – | – | inhibition at 50 µM [6]: 37%; inhibition [7]: 42% |
| CC(C)(C)OC(=O)N[C@@H](CCCCN)C(=O)N1CCCC(C(=O)NCCC(=O)O)C1 (some centres undefined) | 29 | 87 | 88 | IC50 [2]: 350 nM; inhibition at 1 µM [5]: 21% |
| CC(C)(C)OC(=O)N[C@H](CCCCN)C(=O)N1CCCC(C(=O)NCCC(=O)O)C1 (some centres undefined) | 740 | 12 | 45 | – |
